# Measurements from the supplement of paper PMC10307832.
# Key:
# Experiment in all cases: relative viability (nuclei count vs DMSO), 5 days (fraction); higher = more cells survive
# IU1-47 = compound: CC1=CC(=C(N1C2=CC=C(C=C2)Cl)C)C(=O)CN3CCCCC3 [IU1-47]
# Procedure, shortened: (§1)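 Lung cancer cell lines in 1536-well plates were kept overnight at 37 °C, then pinned with five library-drug doses (not always all listed) spaced by √10 on vehicle-anchored plates. After 5 days without medium change, cells were fixed, permeabilised and Hoechst-stained in one step, imaged at 4×, and nuclei were counted with MetaXpress. Viability is treated-well nuclei divided by vehicle-well nuclei, taken as the median over plates. Plates passed only with control CV below 25% and at least one doubling.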
# FG-4592 = compound: Cc1nc(C(=O)NCC(=O)O)c(O)c2ccc(Oc3ccccc3)cc12 [FG-4592]
# Procedure, shortened: as §1
# IU1-47 + Trametinib = compound: CC1=CC(=C(N1C2=CC=C(C=C2)Cl)C)C(=O)CN3CCCCC3 [IU1-47] + CC(=O)Nc1cccc(-n2c(=O)n(C3CC3)c(=O)c3c(Nc4ccc(I)cc4F)n(C)c(=O)c(C)c32)c1 [Trametinib] (partner 0.02 µM)
# Procedure, shortened: (§2)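 Medians of duplicate plates are given as relative viability. That measure is the nuclei count in treated wells divided by the count in vehicle wells. Counts were taken on 4× images of lung cancer cell lines in 1536-well plates, 5 days after pin-tool dosing the day after seeding with one drug alone or a fixed anchor-drug dose plus five library-drug doses (not always all listed) in √10 steps.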
# FG-4592 + Navitoclax = compound: Cc1nc(C(=O)NCC(=O)O)c(O)c2ccc(Oc3ccccc3)cc12 [FG-4592] + CC1(C)CCC(c2ccc(Cl)cc2)=C(CN2CCN(c3ccc(C(=O)NS(=O)(=O)c4ccc(N[C@H](CCN5CCOCC5)CSc5ccccc5)c(S(=O)(=O)C(F)(F)F)c4)cc3)CC2)C1 [Navitoclax] (partner 0.5 µM)
# Procedure, shortened: as §2
Cell Line,relative viability (IU1-47; 0.08 µM),relative viability (IU1-47; 0.253 µM),relative viability (IU1-47; 0.8 µM),relative viability (IU1-47; 2.53 µM),relative viability (IU1-47; 8 µM),relative viability (FG-4592; 0.08 µM),relative viability (FG-4592; 0.253 µM),relative viability (FG-4592; 0.8 µM),relative viability (FG-4592; 2.53 µM),relative viability (FG-4592; 8 µM),relative viability (IU1-47 + Trametinib; first compound 0.08 µM),relative viability (IU1-47 + Trametinib; first compound 0.253 µM),relative viability (IU1-47 + Trametinib; first compound 0.8 µM),relative viability (IU1-47 + Trametinib; first compound 2.53 µM),relative viability (IU1-47 + Trametinib; first compound 8 µM),relative viability (FG-4592 + Navitoclax; first compound 0.08 µM),relative viability (FG-4592 + Navitoclax; first compound 0.253 µM),relative viability (FG-4592 + Navitoclax; first compound 0.8 µM),relative viability (FG-4592 + Navitoclax; first compound 2.53 µM),relative viability (FG-4592 + Navitoclax; first compound 8 µM)
LK-2,1.23,1.05,0.988,0.905,0.934,0.78,0.918,0.685,0.883,0.778,0.932,0.834,0.772,0.545,0.831,0.87,0.771,0.734,0.836,0.674
NCI-H2126,1.09,1.02,1.1,0.698,0.957,0.969,0.906,0.82,0.846,0.901,0.642,0.595,0.592,0.498,0.534,0.825,0.773,0.817,0.875,0.807
NCI-H3122,1.07,1.07,1.01,1.04,0.974,1.03,0.957,1.06,1.07,1.03,0.253,0.287,0.268,0.309,0.222,1.03,0.978,0.997,1.03,1.05
NCI-H1975,0.963,0.943,1.06,0.968,0.842,1,0.881,0.9,0.839,0.861,0.337,0.324,0.464,0.328,0.322,1.21,1.1,1.29,1.1,1.06
NCI-H1944,1.1,1.02,0.947,0.902,0.852,0.932,0.872,0.685,0.954,0.852,0.453,0.473,0.414,0.386,0.415,1.07,1.03,0.962,1.03,0.907
LU99A,0.977,0.898,1.1,0.953,0.972,0.91,0.862,0.748,0.972,0.961,0.499,0.355,0.606,0.617,0.543,0.869,0.709,0.75,0.832,0.718
SW 1573,1.03,1.05,0.958,0.857,0.934,0.936,0.79,0.909,0.994,0.896,0.656,0.59,0.683,0.721,0.489,0.771,0.933,1.02,0.937,0.803
NCI-H2347,1.11,1.02,1.04,0.828,1.01,0.873,0.738,0.955,0.936,1.05,0.258,0.282,0.3,0.304,0.302,0.862,–,0.648,0.804,0.897
NCI-H2009,1,1,1.02,0.842,1.04,1.03,0.958,1,0.902,0.953,0.257,0.3,0.254,0.274,0.25,1.2,1.18,1.21,1.05,1.22
HCC-15,1.1,1.08,1.05,0.678,0.976,0.978,0.922,0.954,0.95,1.05,0.415,0.384,0.384,–,0.469,0.758,0.698,0.686,0.714,0.744
HCC-44,0.964,1.03,1.03,0.945,1.02,1.01,0.939,0.806,1.05,1.04,1.08,1.1,1.04,1.08,0.992,1.01,0.935,0.997,1.11,1.03
COR-L23,1.1,1.08,1.15,0.938,1.15,0.97,1.01,1.11,0.902,1.03,0.579,0.578,0.595,0.534,0.788,0.924,0.98,1.14,0.909,0.932
HCC-78,0.97,0.953,1.03,0.874,0.889,0.893,0.746,0.972,0.916,1.01,0.929,0.812,0.814,0.515,0.939,0.904,0.766,0.442,0.773,0.806
NCI-H727,1.03,0.938,1.12,0.755,0.867,0.88,0.921,0.894,0.944,0.992,0.438,0.349,0.369,0.375,0.368,0.537,0.403,0.413,0.63,0.525
NCI-H2087,1.04,1.01,1.06,0.924,1,0.98,0.988,1.32,1.01,1.13,0.172,0.187,0.203,0.195,0.229,1.01,0.946,1.04,0.98,1.03
BEN,1.02,1.01,1.12,0.781,0.971,0.787,0.734,0.822,1.03,0.733,1.21,1.1,1.23,0.896,1.15,0.0578,0.0857,0.0654,0.0822,0.0636

Cell Line,relative viability (IU1-47; 0.08 µM),relative viability (IU1-47; 0.253 µM),relative viability (IU1-47; 0.8 µM),relative viability (IU1-47; 2.53 µM),relative viability (IU1-47; 8 µM),relative viability (FG-4592; 0.08 µM),relative viability (FG-4592; 0.253 µM),relative viability (FG-4592; 0.8 µM),relative viability (FG-4592; 2.53 µM),relative viability (FG-4592; 8 µM),relative viability (IU1-47 + Trametinib; first compound 0.08 µM),relative viability (IU1-47 + Trametinib; first compound 0.253 µM),relative viability (IU1-47 + Trametinib; first compound 0.8 µM),relative viability (IU1-47 + Trametinib; first compound 2.53 µM),relative viability (IU1-47 + Trametinib; first compound 8 µM),relative viability (FG-4592 + Navitoclax; first compound 0.08 µM),relative viability (FG-4592 + Navitoclax; first compound 0.253 µM),relative viability (FG-4592 + Navitoclax; first compound 0.8 µM),relative viability (FG-4592 + Navitoclax; first compound 2.53 µM),relative viability (FG-4592 + Navitoclax; first compound 8 µM)
EKVX,1.23,1.12,1.03,0.859,0.943,1.03,0.809,0.932,0.941,0.992,0.369,0.374,0.375,–,0.296,0.848,0.813,0.855,1.09,1.04
LXF-289,1.08,1.06,1.08,0.982,0.958,1.04,0.941,1.06,0.981,1.09,0.689,0.726,0.645,0.68,0.668,0.956,0.914,1.02,0.936,0.953
NCI-H1650,0.9,1.04,0.951,0.831,0.845,0.835,0.858,0.986,0.935,0.979,0.515,0.766,0.612,0.62,0.459,1.23,1.12,1.37,1.17,1.24
NCI-H2085,1.05,0.998,0.973,1.01,0.954,1,0.955,0.934,0.965,1.02,0.515,0.471,0.577,0.614,0.523,1.18,1.09,1.1,1.15,1.08
NCI-H1793,0.859,0.83,1.04,–,0.864,0.569,0.812,–,0.745,0.762,0.42,–,0.554,0.513,0.416,0.335,0.384,–,0.291,0.238
LC-2-ad,0.981,0.997,1.07,0.673,0.889,0.997,0.924,0.973,0.925,1.09,0.951,1.02,0.954,–,0.884,0.489,0.465,0.329,0.458,0.503
COR-L 105,0.95,0.901,1.02,0.899,0.91,0.921,0.938,0.909,0.821,0.801,0.522,0.422,0.45,0.461,0.459,0.777,0.709,0.919,0.595,0.74
NCI-H1355,1.01,1.04,1.03,–,0.881,0.965,0.922,–,0.926,0.912,0.432,0.441,0.386,–,0.35,1.08,0.94,–,0.901,0.862
H3255,1.11,1.16,1.02,0.74,0.975,1.02,0.87,0.926,0.9,1.08,0.636,0.643,0.7,–,0.587,0.554,0.387,0.523,0.596,0.6
NCI-H1993,0.927,1.07,0.856,0.974,0.914,0.987,0.925,0.64,0.827,0.78,0.545,0.613,0.564,0.471,0.0511,0.946,0.907,0.696,1.09,0.898
NCI-H1734,1.06,1.07,0.981,–,0.99,0.824,0.939,0.717,0.808,0.876,0.867,0.67,0.593,0.647,0.645,0.854,0.776,0.838,0.814,0.787
HOP-62,1.09,1.05,1.09,0.779,1.09,0.997,0.957,0.943,0.96,1.01,0.4,0.332,0.387,0.383,0.348,1.04,1.01,1.2,0.983,1.03
LOU-NH91,1.09,1.04,0.964,1.04,0.952,0.942,0.869,0.905,0.92,0.96,0.904,0.845,0.844,0.795,0.749,0.709,0.624,0.635,0.711,0.617
ChaGo-K-1,0.982,0.997,1.04,0.811,0.821,0.97,0.975,0.935,0.967,0.937,0.927,0.869,0.958,0.813,0.814,1.04,1.03,0.708,1.15,0.54
NCI-H2228,1.04,1.14,1.06,0.986,0.709,0.905,0.868,0.899,1.02,0.644,0.614,0.415,0.699,0.454,0.399,0.949,0.663,0.896,0.832,0.819
PC-14,1.04,1.05,1.09,0.84,0.933,1.07,0.927,0.99,0.982,0.97,0.95,0.771,0.91,1.14,0.723,1.01,1.06,1.08,1.01,1.03
